We go through 4 molecules from patent US11224565B2, “N-acyldipeptide derivatives and their uses” (NeoStrata Company, Inc., priority 2011, dated 2022).

Peptide text beside a SMILES is read from it.

What all share (type): in vivo, human
Series [1] deals with age spots including lentigines and keratosis. Briefly: Topical treatment of age spots on face. The conditions noted are these: twice daily, after 4 weeks; 1% (w/v) N-Ac-L-Cys-L-Tyr-NH2 in WEP442 pH 6.4 left side, 0.4% (w/v) N-Ac-L-Cys-L-Cys-NH2 in WEP442 right side. The source says: A subject had multiple age spots including lentigines and keratosis on their face. Topical treatments with conventional medications including hydroquinone with or without glycolic acid had been unsuccessful. The subject topically applied twice daily to the left side of their face 1% (w/v) N—Ac-L-Cys-L-Tyr-NH2 in WEP442, pH 6.4 (Example 5), and to the right side of their face 0.4% (w/v) N—Ac-L-Cys-L-Cys-NH2 in WEP442 (Example 5) for several months. […] Continued topical applications of the formulations should improve or eradicate lentigines and keratosis of the face.

Series [2] relates to Aging related changes of skin, nail and hair. Briefly: Summary of test results in volunteer subjects: aging related changes. The following applies: efficacy grade.
In series [3] the test system is Deranged immune disorders and inflammation. Briefly: Summary of test results in volunteer subjects: deranged immune disorders and inflammation. The conditions noted are these: efficacy grade. Put shortly: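 Volunteers applied N-acyldipeptide derivatives topically once or twice daily for several weeks or until lesions cleared. Compounds were dissolved in water/ethanol/propylene glycol (40:40:20) or ethanol/propylene glycol (80:20), or in water/propylene glycol (80:20) mixed into an oil-in-water cream. Vehicle control applied twice daily.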

The subject of another series is Disturbed keratinization. Briefly: Summary of test results in volunteer subjects: disturbed keratinization. The following applies: efficacy grade. Put shortly:
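Volunteers applied N-acyldipeptide derivatives dissolved in water/ethanol/propylene glycol 40:40:20, ethanol/propylene glycol 80:20, or water/propylene glycol 80:20 mixed into oil-in-water cream, on involved skin once or twice daily for several weeks or until clearing. Vehicle applied twice daily as control; disturbed keratinization lesions assessed clinically.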

The next series concerns Nerve disorders. Briefly: Summary of test results in volunteer subjects: nerve disorders. The following applies: efficacy grade. The procedure, abridged:
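Volunteers applied N-acyldipeptide derivatives dissolved in water/ethanol/propylene glycol (40:40:20), ethanol/propylene glycol (80:20), or water/propylene glycol (80:20) mixed into cream, once or twice daily for several weeks or until lesions cleared. Vehicle control applied twice daily; application also over arthritic joints or painful muscles.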

Series [4] deals with arthritis of both knees with edema and pain. Description: Sublingual administration in arthritis of knees. The following applies: 1 mg sublingually, kept under the tongue 15 minutes; after a few hours. The procedure: A subject had severe arthritis of both knees with edema and pain for many years. The conventional therapy had provided only temporary relief of knee pain and edema. The subject took N—Ac-L-Pro-Gly-NH2 (1 mg) sublingually and kept the dipeptide under the tongue for 15 minutes before swallowing.

A short description of series [5]: Systemic administration under the tongue, tolerability. The following applies: 1 mg powder under the tongue, twice daily for three days, person. The procedure: The subject took 1 mg N—Ac-L-Tyr-L-Tyr-OH powder under the tongue until it was dissolved completely. The same dose was taken twice daily for the next three days. […] Such systemic administration of the bioactive dipeptide derivative of the present invention is believed to have the potential of treating diseases, symptoms or syndromes associated with immune, tumors, cancers, nervous, vascular, musculoskeletal, cutaneous system, or other tissues and systems.

For series [6], the system named is inflammation, dermatitis, or eczema lesions. Briefly: Topical application to chronic inflammation, dermatitis, eczema or allergic skin lesions, clinical evaluation. The following applies: 0.4% (w/v) in WEP442 pH 3.7 twice daily, inflammatory dermatitis on both arms. The source says:
In another embodiment, the volunteer subject topically applied the test compositions containing N-acyldipeptide derivatives of the present invention on involved skin or lesions once or twice daily for several weeks or until the involved lesions completely cleared and clinically changed to normal skin. As a control study, the subject also topically applied a vehicle control composition on the involved skin or lesions twice daily for the same period.

A further series relates to forearm skin. Briefly: Skin thickness of forearm by micrometer calipers after topical application. The following applies: for increase in skin thickness of treated left forearm: 1% (w/v) in WEP442 topically twice daily, vehicle forearm no change. The procedure: In one of the studies related to skin changes associated with aging, skin thickness was measured by micrometer calipers as follows. The skin was grasped with a 2×6 cm metal hinge; the internal faces of which were coated with emery cloth to prevent slippage, and manually squeezed to threshold subject discomfort. Combined thickness of two whole-skin layers including thickness of the two hinge leaves was measured with micrometer calipers. Thickness of the two hinge leaves was subtracted to determine the actual thickness of two whole-skin layers. Triplicate measurements on treated sites were done and an average number was used for calculation of the skin thickness. In other studies, test sites of skin 17 mm in diameter were used, the circular sites were marked with permanent ink. Intervening control sites were also 17 mm in diameter. Thickness of skin of all sites was measured directly by means of an electronic digital caliper. In this instance the jaws of the caliper were opened to 17 mm, applied with pressure to the skin sites and then closed to firm tightness. Thickness of skin was then read off the screen of the calipers. Measurements of all sites were made in triplicates.

As for `CC(=O)N[C@@H](CS)C(=O)N[C@@H](CS)C(N)=O` [N-Ac-L-Cys-L-Cys-NH2] (Ac-Cys-Cys-NH2), the “age spot lesions of face” value in [1] is given as “started to improve noticeably”. In addition, the AG in [2] is recorded as 3+ (3+: 75% Efficacy). In addition, the DI in [3] was 2+ (2+: 50% Efficacy). For the same molecule, the DK with Disturbed keratinization is given as 2+ (2+: 50% Efficacy). The ND in the series with Nerve disorders is 2+ (2+: 50% Efficacy).

With `CC(=O)N[C@@H](CS)C(=O)N[C@@H](Cc1ccc(O)cc1)C(N)=O` [N-Ac-L-Cys-L-Tyr-NH2] (Ac-Cys-Tyr-NH2), the “age spot lesions of face” value in series [1] is recorded as “started to improve noticeably”. Further, the AG in [2] was 2+ (2+: 50% Efficacy). Also, the DI in series [3] is 2+ (2+: 50% Efficacy). Also, the DK in the series on Disturbed keratinization is 2+ (2+: 50% Efficacy). Further, in the series with Nerve disorders, the ND is given as 3+ (3+: 75% Efficacy).

Regarding `CC(=O)N1CCC[C@H]1C(=O)NCC(N)=O` [N-Ac-L-Pro-Gly-NH2] (Ac-Pro-Gly-NH2), the AG in series [2] is on record as 2+ (2+: 50% Efficacy). Further, the “edema and pain of arthritic knees” value in series [4] is recorded as “diminished substantially”. Moreover, the DI in series [3] is listed as 3+ (3+: 75% Efficacy). In addition, the DK in the series on Disturbed keratinization is recorded as 2+ (2+: 50% Efficacy). The ND in the series with Nerve disorders is on record as 4+ (4+: 95-100% Efficacy).

As for `CC(=O)N[C@@H](Cc1ccc(O)cc1)C(=O)N[C@@H](Cc1ccc(O)cc1)C(=O)O` [N-Ac-L-Tyr-L-Tyr-OH] (Ac-Tyr-Tyr-OH), the AG in [2] is reported as 4+ (4+: 95-100% Efficacy). Besides, the DI in [3] is given as 3+ (3+: 75% Efficacy). For the same molecule, the DK in the series on Disturbed keratinization is listed as 3+ (3+: 75% Efficacy). The “irritation or side reactions” value in series [5] is given as “did not provoke any irritation or side reactions”. In series [6], the “itch after topical application” value was “stopped within a few minutes”. In addition, the “improvement as judged by clinical evaluation” value in series [6] (end of one week) is given as 95%. The “increase in skin thickness of treated left forearm” value in the series with forearm skin (after 2 weeks) is on record as 16%; with forearm skin (after 4 weeks), 17%; in the series with forearm skin (after one week), 16%. In addition, in the series on forearm skin (1-3% (w/v) in WEP442 topically twice daily for 1-6 weeks as in the example, vehicle forearm still loose, thin and wrinkled), the “appearance of treated left forearm at end of treatment” value is “more firm, smooth, plump, and less wrinkled when lifted”. Also, the ND with Nerve disorders is given as 4+ (4+: 95-100% Efficacy).
